Results from patent US9914760B2, “Methods of identifying, isolating and using odorant and aroma receptors” (Firmenich SA, priority 2013, dated 2018).

How the values were obtained:
OR11G2 = target: T1, OR11G2 (Homo sapiens, UniProt Q8NGC1); assay: cell-based calcium-flux assay, HEK293T with Gα15; settings: increasing concentrations; FIG. 6C
T1 construct: expressed in transfected cells
T1 sequence (Q8NGC1 35-345): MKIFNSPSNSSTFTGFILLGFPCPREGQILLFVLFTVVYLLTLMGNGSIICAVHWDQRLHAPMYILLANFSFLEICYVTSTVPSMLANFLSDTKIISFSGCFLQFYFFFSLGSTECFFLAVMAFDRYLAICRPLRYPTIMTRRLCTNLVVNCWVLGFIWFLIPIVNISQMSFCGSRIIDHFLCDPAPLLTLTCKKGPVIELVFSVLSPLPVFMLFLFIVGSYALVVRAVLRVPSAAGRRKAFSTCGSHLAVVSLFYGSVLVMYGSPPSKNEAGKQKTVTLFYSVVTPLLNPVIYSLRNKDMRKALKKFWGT
Description: (§1) The activity of candidate human indole and skatole malodors receptors OR52N2 (SEQ ID NO: 11 and SEQ ID NO: 12), OR11G2 (SEQ ID NO: 13 and SEQ ID NO: 14, OR5AC2 (SEQ ID NO: 75 and SEQ ID NO: 76), OR4C15 (SEQ ID NO: 79 and SEQ ID NO: 80), OR8S1 (SEQ ID NO: 83 and SEQ ID NO: 84), OR11H6 (SEQ ID NO: 15 and SEQ ID NO: 16) and OR11H4 (SEQ ID NO: 49 and SEQ ID NO: 50) and candidate mouse indole and skatole malodors receptors Olfr665 (SEQ ID NO: 9 and SEQ ID NO 10) and Olfr740 (SEQ ID NO: 1 and SEQ ID NO 2) were confirmed in cell-based calcium-flux assays (FIGS. 6A to 6J). Cells stably co-expressing Rho-tagged human OR52N2 (FIG. 6A, B) or OR11G2 (FIG. 6C) and Gα15 (SEQ ID NO: 25) were exposed to increasing concentrations of skatole or indole. FIG. 6B is a repeat experiment showing similar activity of OR52N2 with indole and skatole. Odorant-induced OR52N2 or OR11G2 activity was detected by measuring the maximum Calcium 5 dye (Molecular Devices) fluorescence change following odorant exposure. Activity is defined as the baseline corrected Relative Fluorescent Units (RFU) ratios normalized to the highest RFU in the experiment in FIG. 6A. […] A cell line lacking a receptor, for example hOR52N2, was used as a control for non-specific activity at high concentrations (‘Indole control’ and ‘Skatole control’). The human receptor OR52N2 (SEQ ID NO: 11 and SEQ ID NO: 12) was identified because of its sequence similarity to mouse Olfr665 (SEQ ID NO: 10), an indole/skatole receptor isolated from olfactory neurons responding to both indole and skatole. The human receptor OR11G2 (SEQ ID NO: 13 and SEQ ID NO: 14) was identified because of its sequence similarity to mouse Olfr740 (SEQ ID NO: 2), an indole/skatole receptor isolated from olfactory neurons responding to both indole and skatole. The receptors were modified with the Rho sequence and stably expressed in HEK 293T cells. Further examples show indole and skatole dose-response curves for human receptors OR5AC2, OR4C15, OR8S1, OR11H6, OR11H4 and mouse receptors Olfr665 and Olfr740 (FIG. 6D-J). The human receptor OR5AC2 (SEQ ID NO: 75 and SEQ ID NO: 76) was identified because of its sequence similarity to mouse Olfr207 (SEQ ID NO: 78), a receptor isolated from olfactory neurons responding to both indole and skatole. The human receptor OR4C15 (SEQ ID NO: 79 and SEQ ID NO: 80) was identified because of its sequence similarity to mouse Olfr211 (SEQ ID NO: 82), a receptor isolated from olfactory neurons responding to both indole and skatole. The human receptor OR8S1 (SEQ ID NO: 83 and SEQ ID NO: 84) was identified because of its sequence similarity to mouse Olfr257 (SEQ ID NO: 86), a receptor isolated from olfactory neurons responding to both indole and skatole. The human receptor OR11H6 (SEQ ID NO: 15 and SEQ ID NO: 16) was identified because of its sequence similarity to mouse Olfr745 (SEQ ID NO: 8), a receptor isolated from olfactory neurons responding to both indole and skatole. The human receptor OR11H4 (SEQ ID NO: 49 and SEQ ID NO: 50) was identified because of its sequence similarity to mouse Olfr746 (SEQ ID NO: 38), a receptor isolated from olfactory neurons responding to both indole and skatole. The mouse receptor Olfr665 (SEQ ID NO: 9 and SEQ ID NO: 10) was identified directly from NGS data from isolated olfactory neurons responding to both indole and skatole. The mouse receptor Olfr740 (SEQ ID NO: 1 and SEQ ID NO: 2) was identified directly from NGS data from isolated olfactory neurons responding to both indole and skatole. Co-expression of the human G alpha subunit Gα15 activates the Gq transduction pathway that leads to an internal Ca2+ increase upon binding to the appropriate ligand.

Olfr740 = assay: cell-based calcium-flux assay, HEK293T with Gα15; parameters: species or system mouse; settings: dose-response curves FIG. 6D-J
Description: as §1, with “The human receptor OR11H6 (SEQ ID NO: 15 and SEQ ID NO: 16) was identified because of its sequence similarity to mouse Olfr745 (SEQ ID NO: 8), a receptor isolated from olfactory neurons responding to both indole and skatole. The human receptor OR11H4 (SEQ ID NO: 49 and SEQ ID NO: 50) was identified because of its sequence similarity to mouse Olfr746 (SEQ ID NO: 38), a receptor isolated from olfactory neurons responding to both indole and skatole. The mouse receptor Olfr665 (SEQ ID NO: 9 and SEQ ID NO: 10) was identified directly from NGS data from isolated olfactory neurons responding to both indole and skatole. The mouse receptor Olfr740 (SEQ ID NO: 1 and SEQ ID NO: 2) was identified directly from NGS data from isolated olfactory neurons responding to both indole and skatole. Co-expression of the human G alpha subunit Gα15 activates the Gq transduction pathway that leads to an internal Ca2+ increase upon binding to the appropriate ligand.” left out

Olfr665 = assay: cell-based calcium-flux assay, HEK293T with Gα15; parameters: species or system mouse; settings: dose-response curves FIG. 6D-J
Description: as §1, with “The human receptor OR11H6 (SEQ ID NO: 15 and SEQ ID NO: 16) was identified because of its sequence similarity to mouse Olfr745 (SEQ ID NO: 8), a receptor isolated from olfactory neurons responding to both indole and skatole. The human receptor OR11H4 (SEQ ID NO: 49 and SEQ ID NO: 50) was identified because of its sequence similarity to mouse Olfr746 (SEQ ID NO: 38), a receptor isolated from olfactory neurons responding to both indole and skatole. The mouse receptor Olfr665 (SEQ ID NO: 9 and SEQ ID NO: 10) was identified directly from NGS data from isolated olfactory neurons responding to both indole and skatole. The mouse receptor Olfr740 (SEQ ID NO: 1 and SEQ ID NO: 2) was identified directly from NGS data from isolated olfactory neurons responding to both indole and skatole. Co-expression of the human G alpha subunit Gα15 activates the Gq transduction pathway that leads to an internal Ca2+ increase upon binding to the appropriate ligand.” left out

[1] = system: olfactory sensory neurons; assay: Ca2+ imaging of dissociated olfactory sensory neurons (Fura-2); format: cell-based, mouse; settings: 50 μM each; 6 independent neurons (FIG. 2)
Description: The olfactory epithelium containing native olfactory neurons from a mouse was isolated and dissociated into single cells and then transferred to a dissociation buffer for a gentle mechanical and enzymatic dissociation. In order to optimize the dissociation protocol, the general procedure for making fresh dissociation buffer was followed as set forth in Araneda et al. (2004), A Pharmacological Profile of the Aldehyde Receptor Repertoire in Rat Olfactory Epithelium. Journal of Physiology: 555:743-756 with the following modifications: DNAse I instead of DNAse II, Ca2+ concentration elevated to 5 mM and pH adjusted at 7.35 at 32°. Dissociated neurons were then seeded on a coverslip allowing the screening of >2,500 cells by fluorescence microscopy. The cells were then loaded with a calcium sensitive dye (Fura-2 AM) for 30 minutes at 31° C. and transferred onto a microscope ready for screening. […]
Olfactory neurons that responded to indole and skatole were identified by stimulating receptors with 50 μm indole followed by 50 μm skatole and monitoring the intracellular Ca2+ flux indicated by changes in Fura-2 fluorescence. […] Average Fluorescence Intensity, relative fluorescent unit as a result of a ratiometric 340/380 nm recordings.

Cc1c[nH]c2ccccc12 [skatole, 3-methyl indole]
receptor activity (Calcium 5 dye fluorescence change) (OR11G2): dose-dependent increase of receptor activity | receptor activation in vitro (Olfr740): activated | receptor activation in vitro (Olfr665): activated | activation of olfactory sensory neurons (intracellular Ca2+ flux, Fura-2 fluorescence) [1]: activated

c1ccc2[nH]ccc2c1 [indole]
receptor activity (Calcium 5 dye fluorescence change) (OR11G2): dose-dependent increase of receptor activity | receptor activation in vitro (Olfr740): activated | receptor activation in vitro (Olfr665): activated | activation of olfactory sensory neurons (intracellular Ca2+ flux, Fura-2 fluorescence) [1]: activated
